Reference: paper PMC8960621, “Solution speciation and human serum protein binding of indium(III) complexes of 8-hydroxyquinoline, deferiprone and maltol” (Journal of Biological Inorganic Chemistry, 2022)
Values joined by “and” are separate entries in the source; they are usually repeats but may differ in a detail not shown here. Equal entries are not always repeated.

What was measured:
apoTf = target: T1, apoTf (Homo sapiens, UniProt P02787); assay: apoTf fluorescence quenching; type: binding; details: λEM = 330 nm
T1 construct: purchased Sigma-Aldrich T2036
Procedure: Fluorescence quenching is a convenient technique to study the binding of metal ions at the iron-binding sites of apoTf since it results in reduced fluorescence intensity of Tf. Batch samples containing 1 μM apoTf and various amounts of In(III) compounds were prepared. […] The partial (and not complete) quenching of apoTf can be explained by the presence of numerous Tyr (26) and Trp (8) residues in the protein among which only a few are affected by the binding of In(III) at the iron-binding sites. Upon addition of InQ3, the quenching curve is more stretched and aims to lower intensities (Fig. 4b). Interaction of the non-dissociated complex InQ3 with apoTf cannot be excluded, the latter proposed interaction is realized via intermolecular binding mode and more likely takes place on site(s) other than the iron-binding pockets (vide infra).
Fluorescence studies were implemented by a Fluoromax (Horiba Jobin Yvon) fluorometer in 1 cm quartz cells. Samples contained 1 μM HSA or (apo)Tf and various protein-to-metal complex (or InCl3) ratios (up to complex/HSA = 1:30) were used. […] Intrinsic fluorescence of complex InQ3 was also followed at λEX = 367 nm, and λEM = 450 – 650 nm. In this setup, the complex concentration was ca. 10 or 20 μM, and protein (HSA, (apo)Tf) concentration was varied between 0 and 130 μM, and residual fluorescence of the proteins were subtracted if it was necessary. […]

apo-transferrin (apoTf) = target: T2, apo-transferrin (apoTf) (Homo sapiens, UniProt P02787); assay: Kinetics of the reaction with apoTf followed by UV-vis spectrophotometry; type: binding; details: pH 7.40 (InCl3: 2 equiv.)
T2 construct: purchased Sigma-Aldrich T2036
Procedure: Firstly, the kinetics of the reaction between apoTf and InCl3 and the complexes was studied by UV–vis spectrophotometry. The reaction of 2 equiv. […] At the same time Harris et al. have observed slow equilibration with InCl3, that was accelerated (to 6 h) in the presence of NTA [18]. In the case of InQ3 and InD3, the progress of apoTf binding could be followed through the ligand bands of the complexes. […] The Ga(III)-analogue GaQ3 interacted within 1 h with apoTf under similar conditions.
For (apo)Tf containing samples, complex concentrations were 20 μM and 0–2.5 equiv. protein was added. Reference spectra for the complexes, ligands and protein were recorded as well. Samples prepared with blood serum contained three-fold diluted serum and 10 μM metal complexes. UV–vis spectra presented in this paper for complexes InD3 or InQ3 are subtracted by the spectrum of reference protein (HSA (apo)Tf or serum) sample in all cases in favour of the better interpretation of the results.

[1] = target: T3, human serum albumin (HSA) (Homo sapiens, UniProt P02768); assay: HSA binding by steady-state spectrofluorometry (complex fluorescence and Trp-214 quenching)
T3 construct: purchased Sigma-Aldrich A8763
From the text: The effect of HSA on the intrinsic fluorescence of InQ3 and InD3 was studied. Similarly to GaQ3 and tris(8-hydroxy-quinolinato)Al(III), InQ3 and InD3 are also fluorescent metal complexes (see Table 2 for λmax values). […] The fluorescence intensity of InQ3 increased in the presence of HSA, and emission intensity values measured at 530 nm show a saturation character plotted against the added HSA equivalents. […] At the same time, UV–vis absorbance spectra of InQ3 are only slightly altered by the binding interaction. Enhanced fluorescence of InQ3, and fast binding kinetics confirm the binding of the non-dissociated metal complex to the protein via intermolecular interactions. Fluorometric data can be excellently fitted with the computer program PSEQUAD [43] assuming a single site model (see Fig. 3), and a conditional binding constant of log K′ = 5.0 ± 0.1 was calculated for the HSA – InQ3 adduct. This constant indicates a moderate affinity of the complex on HSA.
Binding at the site I hydrophobic pocket of HSA can be followed via the selective excitation (λEX = 295 nm) of the single Trp (Trp-214) located close to this site. Trp-214 is sensitive to the binding events taking place at or near this site. The InQ3 complex quenched effectively the fluorescence of HSA, and a quenching constant (K’Q) could be computed based on the measured spectra: log K’Q = 5.1 ± 0.1.
Fluorescence studies were implemented by a Fluoromax (Horiba Jobin Yvon) fluorometer in 1 cm quartz cells. Samples contained 1 μM HSA or (apo)Tf and various protein-to-metal complex (or InCl3) ratios (up to complex/HSA = 1:30) were used. The excitation wavelength was 295 nm and 280 nm for HSA and Tf binding studies, respectively; emission intensity was registered between 300 and 450 nm. Intrinsic fluorescence of complex InQ3 was also followed at λEX = 367 nm, and λEM = 450 – 650 nm. In this setup, the complex concentration was ca. 10 or 20 μM, and protein (HSA, (apo)Tf) concentration was varied between 0 and 130 μM, and residual fluorescence of the proteins were subtracted if it was necessary. […] Computer program PSEQUAD [43] was utilized for the calculation of binding constants (K’) for HSA – InQ3 adducts similar to the approach described in our former works. Calculations were always based on data obtained from at least two independent measurements.

T3 sequence (P02768 25-609): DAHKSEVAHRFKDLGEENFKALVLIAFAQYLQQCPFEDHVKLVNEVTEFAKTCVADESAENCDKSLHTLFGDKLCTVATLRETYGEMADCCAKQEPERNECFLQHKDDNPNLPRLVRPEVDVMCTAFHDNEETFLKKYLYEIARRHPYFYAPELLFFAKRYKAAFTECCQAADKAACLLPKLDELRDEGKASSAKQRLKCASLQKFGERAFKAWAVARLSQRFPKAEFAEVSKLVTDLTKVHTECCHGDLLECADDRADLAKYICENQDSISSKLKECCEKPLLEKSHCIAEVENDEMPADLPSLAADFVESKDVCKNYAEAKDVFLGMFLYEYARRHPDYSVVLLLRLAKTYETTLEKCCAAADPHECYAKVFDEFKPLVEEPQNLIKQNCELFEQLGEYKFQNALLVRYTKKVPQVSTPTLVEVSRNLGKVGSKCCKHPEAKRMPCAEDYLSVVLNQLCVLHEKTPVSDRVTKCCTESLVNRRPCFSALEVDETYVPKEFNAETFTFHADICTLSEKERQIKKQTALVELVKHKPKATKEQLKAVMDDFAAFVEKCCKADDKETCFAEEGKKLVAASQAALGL
T1 sequence (P02787 20-698): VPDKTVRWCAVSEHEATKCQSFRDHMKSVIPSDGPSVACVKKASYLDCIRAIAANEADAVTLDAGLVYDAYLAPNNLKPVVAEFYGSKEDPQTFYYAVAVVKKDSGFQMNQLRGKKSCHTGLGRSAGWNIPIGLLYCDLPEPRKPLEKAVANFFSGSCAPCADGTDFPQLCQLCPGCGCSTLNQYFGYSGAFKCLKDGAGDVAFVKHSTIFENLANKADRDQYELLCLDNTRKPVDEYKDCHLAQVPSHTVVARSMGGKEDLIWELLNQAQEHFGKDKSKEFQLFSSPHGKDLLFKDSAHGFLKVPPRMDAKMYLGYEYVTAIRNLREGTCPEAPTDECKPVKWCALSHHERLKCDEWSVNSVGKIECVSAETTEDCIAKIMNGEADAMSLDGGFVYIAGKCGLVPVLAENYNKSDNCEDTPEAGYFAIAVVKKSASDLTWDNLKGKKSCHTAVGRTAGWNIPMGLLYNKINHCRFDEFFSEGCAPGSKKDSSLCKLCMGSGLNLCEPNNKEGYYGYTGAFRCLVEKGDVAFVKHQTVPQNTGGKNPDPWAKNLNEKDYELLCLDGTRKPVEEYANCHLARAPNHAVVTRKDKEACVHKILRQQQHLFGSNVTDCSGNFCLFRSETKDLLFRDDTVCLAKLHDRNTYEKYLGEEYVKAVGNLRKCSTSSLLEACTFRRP
T2 sequence (P02787 20-698): as above

SMILES	apoTf emission stabilized at % of the initial intensity (apoTf; 1 μM apoTf, λEX = 280 nm, pH 7.40)	breakpoint of the quenching curve, complex-to-Tf ratio (apoTf)	time to reach equilibrium in the reaction with apoTf (apo-transferrin (apoTf)) [h]	binding on HSA (fluorescence intensities additive) ([1]; fluorometry, pH 7.40)	log K’Q (quenching constant) ([1]; Trp-214 quenching, λEX = 295 nm, pH 7.40)	time of the interaction with HSA ([1]; fluorometry)	log K′ (conditional binding constant, HSA adduct) ([1]; fluorometry of the complex, single site model, pH 7.40, 25 °C)
Cc1c([O-])c(=O)ccn1C.Cc1c([O-])c(=O)ccn1C.Cc1c([O-])c(=O)ccn1C.[In+3] [InD3]	ca. 83%	ca. 2	~0.5	no considerable binding			
[In+3].[O-]c1cccc2cccnc12.[O-]c1cccc2cccnc12.[O-]c1cccc2cccnc12 [InQ3, Tris(8-Quinolinolato)indium(III)]			3 to 4		5.1 ± 0.1	within a few seconds	5.0–5.1 and 5.0 ± 0.1
